Test results published in patent publication US4069016A, “Assay for bilirubin” (priority 1977, dated 1978).
Where two headings read alike, the source gives them in different places.

What was measured:
Human Serum Albumin [1] = conditions: cited from earlier work
Human Serum Albumin [2] = conditions: cited from earlier work; for first order binding constant KA to human serum albumin: Kragh-Hansen et al. 1974
HSA [3] = biological target: T1, HSA (Homo sapiens, UniProt P02768); test: Bromophenol blue-HSA binding and competitive displacement by bilirubin, ultrafiltration, 590 nm
T1 construct: purchased Pentex, Miles Laboratories, Inc
T1 sequence (P02768 25-609): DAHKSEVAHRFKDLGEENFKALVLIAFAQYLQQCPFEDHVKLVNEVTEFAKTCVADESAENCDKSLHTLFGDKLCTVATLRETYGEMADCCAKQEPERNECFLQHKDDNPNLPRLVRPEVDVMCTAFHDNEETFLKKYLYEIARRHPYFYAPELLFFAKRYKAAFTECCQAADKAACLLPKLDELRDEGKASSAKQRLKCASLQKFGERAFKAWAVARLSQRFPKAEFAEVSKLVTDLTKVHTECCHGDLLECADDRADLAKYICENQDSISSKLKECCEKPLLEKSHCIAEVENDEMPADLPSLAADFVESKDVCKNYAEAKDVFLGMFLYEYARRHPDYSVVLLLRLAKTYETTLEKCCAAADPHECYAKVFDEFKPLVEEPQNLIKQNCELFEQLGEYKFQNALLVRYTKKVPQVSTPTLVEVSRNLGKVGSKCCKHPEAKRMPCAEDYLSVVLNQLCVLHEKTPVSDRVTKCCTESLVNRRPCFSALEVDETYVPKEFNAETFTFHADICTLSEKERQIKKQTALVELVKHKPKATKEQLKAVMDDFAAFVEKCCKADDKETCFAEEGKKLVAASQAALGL
Source text: In this Example, a solution assay for bilirubin in accord with the method of the present invention is illustrated. […] Using an Amicon Ultraflo Membrane Cone CF-25 (having a molecular weight cutoff of 25,000 daltons) in an ultrafiltration technique as described by U. Kragh-Hansen et. al., Biochim. et Biophys.

HSA [4] = biological target: T1, HSA; test: ANS-HSA complex solution assay, fluorescence (ANS binding and displacement by bilirubin)
Experimental: Where the detectable ligand used in the following Examples was a fluorescent probe, arbitrary fluorescence, F, was recorded both immediately before and after addition of bilirubin (B) to the complex. The difference in these F values (i.e. ΔF) was then expressed as a percentage value by arbitrarily designating the F value for the complex at 100 prior to addition of any bilirubin analyte to the complex (i.e. at zero B concentration). A series of Δ F values were then plotted for a given complex having a constant D/P ratio against a series of liquid test samples containing varying B concentrations. As a result, one obtained a calibration curve for that complex. A liquid test sample containing an unknown amount of B, could then be evaluated by the Δ F value for that sample using the calibrated complex and then locating this Δ F value on the previously prepared calibration curve for the complex.
In this Example, fluorescence of the ANS-albumin complex was obtained by exciting the complex at an excitation maximum of 386 nanometers. […] As is known, the fluorescent probe ANS is highly fluorescent when associated with albumin, but is non-fluorescent when free in solution.
The fluorescence of each of these individual test solutions was monitored as bilirubin-containing test samples were admixed into these individual solutions. […]

[5] = 435 nanometers; cited from earlier work
[6] = Molar absorptivity / extinction coefficient; type: physicochemical; conditions: at or near 590 nanometers
Source text: Among others, there are various direct spectrophotometric assay techniques for bilirubin which take advantage of the molar absorbtivity inherent in bilirubin. That is, bilirubin is a yellow pigment having a molar absorbtivity of about 5 × 10^4 as measured at 435 nanometers. However, although the molar absorbtivity of bilirubin is high enough to be useful in various direct spectrophotometric solution assay techniques, it is not sufficiently high to produce a quantitative assay for bilirubin using "dry chemistry" analytical test elements. Thus, present-day direct spectrophotometric assay techniques for bilirubin are generally limited to solution assay techniques, particularly if accurate, quantitative results are desired. […] In addition, other materials present in bilirubin-containing biological fluids such as human serum can also cause spectral interferences using such direct spectrophotometric assay methods.
In this Example, a solution assay for bilirubin in accord with the method of the present invention is illustrated. The assay of the present Example is similar to that described in Examples 1 and 2 above, except that the present Example illustrates the use of a colorimetric, rather than a fluorometric, assay using bromophenol blue indicator dye as the detectable ligand in the bilirubin-active complex. […]

For C[C@]12CC[C@H]3[C@@H](CCC4=CC(=O)CC[C@@]43C)[C@@H]1CC[C@@H]2O [Testosterone], which “Binding Constant of primary or high affinity site(s) KA” value (Human Serum Albumin [1]; pH 7.4, 25° C) is on record?
The value was 42000 M⁻¹.

Which “Binding Constant of primary or high affinity site(s) KA” value (Human Serum Albumin [1]; pH 7.4, 37° C) does the source give for Nc1ccc(S(=O)(=O)Nc2ncccn2)cc1 [Sulfadiazine, reference compound] here?
The value was 820 M⁻¹.

Which “first order binding constant KA to human serum albumin” value (Human Serum Albumin [2]) does the source give for O=S1(=O)OC(c2ccc(O)cc2)(c2ccc(O)cc2)c2ccccc21 [phenol red, reference compound] here?
The value was “about 10^4 M^-1”.

For O=c1[nH]c(=O)c2[nH]c(=O)[nH]c2[nH]1 [Urate], which “Binding Constant of primary or high affinity site(s) KA” value (Human Serum Albumin [1]; pH 7.4, 37° C) is on record?
The value was 300 M⁻¹.

With C[C@]12CC[C@@H]3c4ccc(O)cc4CC[C@H]3[C@@H]1CC[C@@H]2O [Estradiol] as the compound, how does the “Binding Constant of primary or high affinity site(s) KA” value (Human Serum Albumin [1]; pH 7.4, 5° C) read?
Its value is 100000 M⁻¹.

With C[C@]12CCC(=O)C=C1CC[C@@H]1[C@@H]2[C@@H](O)C[C@]2(C=O)[C@@H](C(=O)CO)CC[C@@H]12 [Aldosterone] as the compound, how does the “Binding Constant of primary or high affinity site(s) KA” value (Human Serum Albumin [1]; pH 7.4, 5° C) read?
The value was < 5000 M⁻¹.

What does the source list for C=CC1=C(C)/C(=C/c2[nH]c(Cc3[nH]c(/C=C4\NC(=O)C(C)=C4C=C)c(C)c3CCC(=O)O)c(CCC(=O)O)c2C)NC1=O [Bilirubin]?
inhibition at 0.244 µg/mL (HSA [3]; pH 7.4, read-out: decrease in bromophenol blue binding to HSA, standard test solution about 0.0244 mg bilirubin per deciliter added): ~33%; amount of bromophenol blue competitively displaced from the albumin carrier (HSA [3]; standard test solution approximately 10 mg bilirubin per deciliter, compared with 0.0244 mg/dl): substantially higher amount; reduction in fluorescence of ANS/HSA complexes (displacement of ANS) (HSA [4]; 0.066 mg/dl bilirubin added, pH 7.4): drastic reduction in fluorescence; extent of displacement of ANS from albumin (change in fluorescence) versus bilirubin (HSA [4]; 25 micromoles/l ANS, 15 micromoles/l HSA, bilirubin 0.03-0.33 mg/dl): quasi-linearly related to the amount of bilirubin added; Binding Constant of primary or high affinity site(s) KA (Human Serum Albumin [1]; pH 7.4, 25° C): 2.4e+08 M⁻¹; Binding Constant of primary or high affinity site(s) KA (Human Serum Albumin [1]; pH 7.4, 37° C): 1.4e+08 M⁻¹; first order binding constant KA to human serum albumin (Human Serum Albumin [2]): greater than 10^8 M^-1; Kd (Human Serum Albumin [2]; example given for comparison in Example 3, read-out: binding constant to albumin): ~10 nM; molar absorbtivity [5]: about 5 × 10^4

Which “Binding Constant of primary or high affinity site(s) KA” value (Human Serum Albumin [1]; pH 7.4, 23° C) does the source give for CCCCCCCCCCCCCCCC(=O)O [palmitate] here?
Its value is 10^6 M^-1.

Which “Binding Constant of primary or high affinity site(s) KA” value (Human Serum Albumin [1]; pH 7.4, 37° C) does the source give for Cc1noc(NS(=O)(=O)c2ccc(N)cc2)c1C [Sulfisoxazole, reference compound] here?
Its value is 19000 M⁻¹.

For Gentamicin sulfate [reference compound], which “Binding Constant of primary or high affinity site(s) KA” value (Human Serum Albumin [1]; pH 7.4, 37° C) is on record?
The value was < 10 M⁻¹.

For O=C(O)c1ccccc1 [Sodium benzoate], which “Binding Constant of primary or high affinity site(s) KA” value (Human Serum Albumin [1]; pH 7.4, 37° C) is on record?
The value was 1700 M⁻¹.

With N[C@@H](Cc1cc(I)c(Oc2cc(I)c(O)c(I)c2)c(I)c1)C(=O)O [L-thyroxine] as the compound, how does the “Binding Constant of primary or high affinity site(s) KA” value (Human Serum Albumin [1]; pH 7.4, 24° C) read?
The value was 10^6 M^-1.

Which “Binding Constant of primary or high affinity site(s) KA” value (Human Serum Albumin [1]; pH 7.4, 5° C) does the source give for CC(=O)[C@H]1CC[C@H]2[C@@H]3CCC4=CC(=O)CC[C@]4(C)[C@H]3CC[C@]12C [Progesterone] here?
The value was 37000 M⁻¹.

For “Polymyzin B sulfate [reference compound]”, which “Binding Constant of primary or high affinity site(s) KA” value (Human Serum Albumin [1]; pH 7.4, 37° C) is on record?
The value was < 100 M⁻¹.

Which Kd (HSA [3]) does the source give for O=S1(=O)OC(c2cc(Br)c(O)c(Br)c2)(c2cc(Br)c(O)c(Br)c2)c2ccccc21 [bromophenol blue, reference compound] here?
The Kd was 500 nM.

What about the “approximate maximum molar binding ratio of bromophenol blue to HSA” value (HSA [3]; 0.05 M sodium phosphate pH 7.4) of the same compound?
Its value is “about 3.4”.

And the extinction coefficient [6]?
Its extinction coefficient is “approximately 78,000”.

For O=C1NC(=O)C(c2ccccc2)(c2ccccc2)N1 [Dipheylhydantoin, reference compound], which “Binding Constant of primary or high affinity site(s) KA” value (Human Serum Albumin [1]; pH not given (--), 37° C) is on record?
Its value is 6000 M⁻¹.

For N[C@@H](Cc1c[nH]c2ccccc12)C(=O)O [L-tryptophan], which “Binding Constant of primary or high affinity site(s) KA” value (Human Serum Albumin [1]; pH 7.4, 2° C) is on record?
Its value is 16000 M⁻¹.
